Measurements from PubChem BioAssay (NCI).
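These data come from cells grown in 96-well plates and exposed to compound for 48 hours at five concentrations. Definition used: TGI = concentration required for complete inhibition of growth.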

Tests used:
Test in all cases: NCI-60 cell line screen, 48 h
786-0 renal = system: 786-0 renal
A498 renal = system: A498 renal
A549 NSCLC = system: A549 NSCLC
ACHN renal = system: ACHN renal
CCRF-CEM leukemia = system: CCRF-CEM leukemia
COLO 205 colon = system: COLO 205 colon
DU-145 prostate = system: DU-145 prostate
EKVX NSCLC = system: EKVX NSCLC
HCT-116 colon = system: HCT-116 colon
HCT-15 colon = system: HCT-15 colon
HOP-62 NSCLC = system: HOP-62 NSCLC
HOP-92 NSCLC = system: HOP-92 NSCLC
HS 578T breast = system: HS 578T breast
HT29 colon = system: HT29 colon
IGROV1 ovarian = system: IGROV1 ovarian
K-562 leukemia = system: K-562 leukemia
KM12 colon = system: KM12 colon
LOX IMVI melanoma = system: LOX IMVI melanoma
M14 melanoma = system: M14 melanoma
MALME-3M melanoma = system: MALME-3M melanoma
MCF7 breast = system: MCF7 breast
MDA-MB-231 breast = system: MDA-MB-231 breast
MDA-MB-435 = system: MDA-MB-435
MDA-N = system: MDA-N
MOLT-4 leukemia = system: MOLT-4 leukemia
NCI-H226 lung = system: NCI-H226 lung
NCI-H23 lung = system: NCI-H23 lung
NCI/ADR-RES ovarian = system: NCI/ADR-RES ovarian
OVCAR-3 ovarian = system: OVCAR-3 ovarian
OVCAR-4 ovarian = system: OVCAR-4 ovarian
OVCAR-5 ovarian = system: OVCAR-5 ovarian
OVCAR-8 ovarian = system: OVCAR-8 ovarian
PC-3 prostate = system: PC-3 prostate
RPMI-8226 leukemia = system: RPMI-8226 leukemia
SF-268 CNS = system: SF-268 CNS
SF-295 CNS = system: SF-295 CNS
SK-MEL-2 melanoma = system: SK-MEL-2 melanoma
SK-MEL-28 melanoma = system: SK-MEL-28 melanoma
SK-MEL-5 melanoma = system: SK-MEL-5 melanoma
SK-OV-3 ovarian = system: SK-OV-3 ovarian
SN12C renal = system: SN12C renal
SNB-19 CNS = system: SNB-19 CNS
SNB-75 CNS = system: SNB-75 CNS
SR leukemia = system: SR leukemia
SW-620 colon = system: SW-620 colon
TK-10 renal = system: TK-10 renal
U251 CNS = system: U251 CNS
UACC-257 melanoma = system: UACC-257 melanoma
UACC-62 melanoma = system: UACC-62 melanoma
UO-31 renal = system: UO-31 renal
HCC-2998 colon = system: HCC-2998 colon
HL-60(TB) leukemia = system: HL-60(TB) leukemia
NCI-H460 lung = system: NCI-H460 lung
NCI-H522 lung = system: NCI-H522 lung
RXF 393 renal = system: RXF 393 renal
SF-539 CNS = system: SF-539 CNS
T-47D breast = system: T-47D breast

C=CCC(NCc1ccccc1)[C@H](OCc1ccccc1)[C@@H]1COC(C)(C)O1 (stereo not given in full)
TGI (786-0 renal): > 100 µM | TGI (A498 renal): > 100 µM | TGI (A549 NSCLC): > 100 µM | TGI (ACHN renal): > 100 µM | TGI (CCRF-CEM leukemia): 69.9 µM | TGI (COLO 205 colon): 41.3 µM | TGI (DU-145 prostate): > 100 µM | TGI (EKVX NSCLC): > 100 µM | TGI (HCT-116 colon): > 100 µM | TGI (HCT-15 colon): 64.9 µM | TGI (HOP-62 NSCLC): > 100 µM | TGI (HOP-92 NSCLC): 49 µM | TGI (HS 578T breast): > 100 µM | TGI (HT29 colon): 27.1 µM | TGI (IGROV1 ovarian): > 100 µM | TGI (K-562 leukemia): 56.4 µM | TGI (KM12 colon): > 100 µM | TGI (LOX IMVI melanoma): 72 µM | TGI (M14 melanoma): > 100 µM | TGI (MALME-3M melanoma): 76.7 µM | TGI (MCF7 breast): > 100 µM | TGI (MDA-MB-231 breast): > 100 µM | TGI (MDA-MB-435): > 100 µM | TGI (MDA-N): > 100 µM | TGI (MOLT-4 leukemia): 83.1 µM | TGI (NCI-H226 lung): 34.1 µM | TGI (NCI-H23 lung): > 100 µM | TGI (NCI/ADR-RES ovarian): > 100 µM | TGI (OVCAR-3 ovarian): > 100 µM | TGI (OVCAR-4 ovarian): > 100 µM | TGI (OVCAR-5 ovarian): > 100 µM | TGI (OVCAR-8 ovarian): > 100 µM | TGI (PC-3 prostate): > 100 µM | TGI (RPMI-8226 leukemia): 44.4 µM | TGI (SF-268 CNS): > 100 µM | TGI (SF-295 CNS): 99.6 µM | TGI (SK-MEL-2 melanoma): 46 µM | TGI (SK-MEL-28 melanoma): > 100 µM | TGI (SK-MEL-5 melanoma): 55.2 µM | TGI (SK-OV-3 ovarian): > 100 µM | TGI (SN12C renal): > 100 µM | TGI (SNB-19 CNS): > 100 µM | TGI (SNB-75 CNS): > 100 µM | TGI (SR leukemia): 55 µM | TGI (SW-620 colon): > 100 µM | TGI (TK-10 renal): 70.8 µM | TGI (U251 CNS): > 100 µM | TGI (UACC-257 melanoma): 58.1 µM | TGI (UACC-62 melanoma): > 100 µM | TGI (UO-31 renal): 83.1 µM

CC(=O)Oc1c(C)cc2c(c1C)C(C)CN2C(C)=O (stereo not given)
TGI (786-0 renal): > 100 µM | TGI (A498 renal): > 100 µM | TGI (A549 NSCLC): > 100 µM | TGI (ACHN renal): > 100 µM | TGI (CCRF-CEM leukemia): > 100 µM | TGI (COLO 205 colon): > 100 µM | TGI (DU-145 prostate): > 100 µM | TGI (EKVX NSCLC): > 100 µM | TGI (HCC-2998 colon): > 100 µM | TGI (HCT-116 colon): > 100 µM | TGI (HCT-15 colon): > 100 µM | TGI (HL-60(TB) leukemia): > 100 µM | TGI (HOP-62 NSCLC): > 100 µM | TGI (HOP-92 NSCLC): > 100 µM | TGI (HS 578T breast): > 100 µM | TGI (HT29 colon): > 100 µM | TGI (IGROV1 ovarian): > 100 µM | TGI (K-562 leukemia): > 100 µM | TGI (KM12 colon): > 100 µM | TGI (LOX IMVI melanoma): > 100 µM | TGI (M14 melanoma): > 100 µM | TGI (MCF7 breast): > 100 µM | TGI (MDA-MB-231 breast): > 100 µM | TGI (MDA-MB-435): > 100 µM | TGI (MDA-N): > 100 µM | TGI (MOLT-4 leukemia): > 100 µM | TGI (NCI-H226 lung): > 100 µM | TGI (NCI-H23 lung): > 100 µM | TGI (NCI-H460 lung): > 100 µM | TGI (NCI-H522 lung): > 100 µM | TGI (NCI/ADR-RES ovarian): > 100 µM | TGI (OVCAR-3 ovarian): > 100 µM | TGI (OVCAR-4 ovarian): > 100 µM | TGI (OVCAR-5 ovarian): > 100 µM | TGI (OVCAR-8 ovarian): > 100 µM | TGI (PC-3 prostate): > 100 µM | TGI (RPMI-8226 leukemia): > 100 µM | TGI (RXF 393 renal): > 100 µM | TGI (SF-268 CNS): > 100 µM | TGI (SF-295 CNS): > 100 µM | TGI (SF-539 CNS): > 100 µM | TGI (SK-MEL-2 melanoma): > 100 µM | TGI (SK-MEL-28 melanoma): > 100 µM | TGI (SK-MEL-5 melanoma): > 100 µM | TGI (SK-OV-3 ovarian): > 100 µM | TGI (SN12C renal): > 100 µM | TGI (SNB-19 CNS): > 100 µM | TGI (SNB-75 CNS): > 100 µM | TGI (SW-620 colon): > 100 µM | TGI (T-47D breast): > 100 µM | TGI (TK-10 renal): > 100 µM | TGI (U251 CNS): > 100 µM | TGI (UACC-257 melanoma): > 100 µM | TGI (UACC-62 melanoma): > 100 µM | TGI (UO-31 renal): > 100 µM
